Source: PMC9898036, “VIP152 is a selective CDK9 inhibitor with pre-clinical in vitro and in vivo efficacy in chronic lymphocytic leukemia” (Leukemia, 2022)

Experiments:
[1] = target: ERBB2 (Homo sapiens, UniProt P04626); assay: KINOMEscan: ERBB2; assay type: binding
Method: The structure and synthesis of VIP152 were recently described by Lücking et al.. (Fig. 1A); however, the selectivity of the molecule in cellular systems has yet to be explored. […] We also performed this experiment at 1000 nM, where CDK9 was inhibited at 99%. […] We found a strong concordance between our data and those of Lücking when comparing the most inhibited kinases. Potential off-target effects of VIP152 were next tested in vitro at a concentration of 10 µM for off-target activity against a broad range of receptors, transporters, ion channels, and enzymes (n = 138) using the Eurofins Diversity Panel.
(§1) Kinomescan Kinase Profiling Assay
(§2) Kinomescan Assay was performed at DiscoverRX and described in Fabian, et al. 2005, Nat.
(§3) Biotechnol. In brief, kinases were produced and subsequently tagged with DNA for qPCR detection.
(§4) Streptavidin-coated magnetic beads were bound to biotinylated kinase ligands to serve as a solid support.
VIP152 was dissolved in DMSO and tested across a 10 serial threefold dilution set and compared to a test compound and a DMSO control. Kinases which were inhibited by VIP152 would not be bound to the solid-support resulting in decreased substrate for the qPCR reaction. Kinome map was produced via TreeSpot Analysis from DiscoverRX. […]
NanoBRETTM Target Engagement Assay Protocol […]
HEK293 cells were grown to 70-80% confluence appropriately prior to assay and subsequently trypsinized. Lipid:DNA complexes were prepared as follows. A 10µg/mL solution of DNA in Opti-MEM without serum consisting of the following ratios of carrier DNA and DNA encoding NanoLuc fusion were prepared.
9.0µg/mL of Transfection Carrier DNA, 1.0µg/mL of NanoLuc fusion vector DNA, and 1mL of Opti-MEM without phenol red. The solution was mixed thoroughly. Next, 30µL of FuGENE HD Transfection Reagent was added into each mL of DNA mixture to form the lipid:DNA complex and mixed by inversion 10 times followed by a 20 minute incubation at room temperature. […]

[2] = target: Serotonin (5-Hydroxytryptamine) 5-HT1A) (Homo sapiens, UniProt P08908); assay: Eurofins Diversity Panel; assay type: binding; settings: hum, Conc. 10 μM
[3] = target: RIPK5 (Homo sapiens, UniProt Q6XUX3); assay: KINOMEscan: RIPK5; assay type: binding; settings: 100 nM, read-out: Percent Control
[4] = target: RPS6KA5(Kin.Dom.1-N-terminal) (Homo sapiens, UniProt O75582); assay: KINOMEscan: RPS6KA5(Kin.Dom.1-N-terminal); assay type: binding; settings: 100 nM, read-out: Percent Control
[5] = target: TYK2(JH2domain-pseudokinase) (Homo sapiens, UniProt P29597); assay: KINOMEscan: TYK2(JH2domain-pseudokinase); assay type: binding; settings: 100 nM, read-out: Percent Control
[6] = target: VRK2 (Homo sapiens, UniProt Q86Y07); assay: KINOMEscan: VRK2; assay type: binding; settings: 100 nM, read-out: Percent Control
[7] = target: CDKL1 (Homo sapiens, UniProt Q00532); assay: KINOMEscan: CDKL1; assay type: binding; settings: 1000 nM, read-out: Percent Control
[8] = target: EPHA6 (Homo sapiens, UniProt Q9UF33); assay: KINOMEscan: EPHA6; assay type: binding; settings: 1000 nM, read-out: Percent Control
[9] = target: FAK (Homo sapiens, UniProt Q05397); assay: KINOMEscan: FAK; assay type: binding; settings: 1000 nM, read-out: Percent Control
[10] = target: IKK-epsilon (Homo sapiens, UniProt Q14164); assay: KINOMEscan: IKK-epsilon; assay type: binding; settings: 1000 nM, read-out: Percent Control
[11] = target: INSR (Homo sapiens, UniProt P06213); assay: KINOMEscan: INSR; assay type: binding; settings: 1000 nM, read-out: Percent Control
[12] = target: INSRR (Homo sapiens, UniProt P14616); assay: KINOMEscan: INSRR; assay type: binding; settings: 1000 nM, read-out: Percent Control
[13] = target: LZK (Homo sapiens, UniProt O43283); assay: KINOMEscan: LZK; assay type: binding; settings: 1000 nM, read-out: Percent Control
[14] = target: CDK7/Cyclin H (Homo sapiens, UniProt P50613); assay: HotSpot radiometric kinase assay; assay type: biochemical; design: purchased ReactionBio
Method: (§5) We next compared VIP152 to other CDK inhibitors currently in development. […] The compounds were tested in a 10-dose series from 0.5 nM to 10 µM against CDK9 in complex with Cyclin T1/T2/K, CDK7/Cyclin H, and GSK3α/β.
as §1, §2, §3, §4
(§6) VIP152 was dissolved in DMSO and tested across a 10 serial threefold dilution set and compared to a test […]
(§7) compound and a DMSO control.
(§8) Kinome map was produced via TreeSpot
(§9) Analysis from DiscoverRX.
(§10) HotSpot Kinase Assay Protocol
(§11) Compounds tested via HotSpot Kinase Assay were sent to ReactionBio for the experiment. The […]
(§12) Kinase substrate was added to reaction buffer (20 mM Hepes (pH 7.5), 10 mM MgCl2, 1 mM EGTA, 0.01% Brij35, 0.02 mg/ml BSA, 0.1 mM Na3VO4, 2 mM DTT, 1% DMSO). Cofactors and kinases were gently added to the reaction buffer. Compounds to be tested were dissolved in 100% DMSO and were delivered into the kinase reaction mixture by Acoustic technology (Echo550; nanoliter range) and incubated for 20 min at room temperature. […] Kinase activity was detected by P81 filter-binding method. […]

[15] = target: GSK3α (Homo sapiens, UniProt P49840); assay: HotSpot radiometric kinase assay; assay type: biochemical; design: purchased ReactionBio; settings: 10-dose series from 0.5 nM to 10 µM; vs dinaciclib, KB-0742, atuveciclib
Method: as §5, §1, §2, §3, §4, §6, §7, §8, §9, §10, §11, §12

ERBB2, sequence (P04626 23-1255): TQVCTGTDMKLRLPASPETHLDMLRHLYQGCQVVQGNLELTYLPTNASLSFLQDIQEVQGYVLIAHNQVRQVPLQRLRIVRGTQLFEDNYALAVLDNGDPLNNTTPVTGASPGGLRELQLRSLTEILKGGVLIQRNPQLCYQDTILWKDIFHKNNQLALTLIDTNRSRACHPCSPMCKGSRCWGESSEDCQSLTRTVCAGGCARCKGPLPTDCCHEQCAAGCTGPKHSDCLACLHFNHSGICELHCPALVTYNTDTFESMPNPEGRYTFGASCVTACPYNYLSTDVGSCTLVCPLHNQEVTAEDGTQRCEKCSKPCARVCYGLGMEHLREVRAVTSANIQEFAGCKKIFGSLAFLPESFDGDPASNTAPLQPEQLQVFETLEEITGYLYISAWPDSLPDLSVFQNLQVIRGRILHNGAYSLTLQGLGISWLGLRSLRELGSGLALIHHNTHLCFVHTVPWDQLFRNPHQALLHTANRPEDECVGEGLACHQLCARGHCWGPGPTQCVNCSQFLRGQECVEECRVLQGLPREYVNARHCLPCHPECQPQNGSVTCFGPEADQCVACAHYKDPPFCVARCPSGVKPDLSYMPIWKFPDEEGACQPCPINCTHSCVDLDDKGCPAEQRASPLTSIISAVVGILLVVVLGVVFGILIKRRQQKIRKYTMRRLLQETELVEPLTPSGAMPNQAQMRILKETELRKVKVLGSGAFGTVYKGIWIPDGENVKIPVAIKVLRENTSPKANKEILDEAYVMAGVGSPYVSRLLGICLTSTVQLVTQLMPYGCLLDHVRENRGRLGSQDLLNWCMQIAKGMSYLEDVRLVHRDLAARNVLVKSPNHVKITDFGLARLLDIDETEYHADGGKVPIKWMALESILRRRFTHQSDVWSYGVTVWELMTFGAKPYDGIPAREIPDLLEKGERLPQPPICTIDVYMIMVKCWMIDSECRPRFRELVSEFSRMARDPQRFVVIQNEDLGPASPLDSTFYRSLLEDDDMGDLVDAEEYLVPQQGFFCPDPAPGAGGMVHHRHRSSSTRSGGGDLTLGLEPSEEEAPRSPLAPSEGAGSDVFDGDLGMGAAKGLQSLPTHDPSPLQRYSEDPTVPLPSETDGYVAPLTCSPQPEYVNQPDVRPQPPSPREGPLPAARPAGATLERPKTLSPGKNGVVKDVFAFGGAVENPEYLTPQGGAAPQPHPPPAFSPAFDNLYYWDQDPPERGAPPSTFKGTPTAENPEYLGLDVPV
LZK, sequence (O43283 whole entry): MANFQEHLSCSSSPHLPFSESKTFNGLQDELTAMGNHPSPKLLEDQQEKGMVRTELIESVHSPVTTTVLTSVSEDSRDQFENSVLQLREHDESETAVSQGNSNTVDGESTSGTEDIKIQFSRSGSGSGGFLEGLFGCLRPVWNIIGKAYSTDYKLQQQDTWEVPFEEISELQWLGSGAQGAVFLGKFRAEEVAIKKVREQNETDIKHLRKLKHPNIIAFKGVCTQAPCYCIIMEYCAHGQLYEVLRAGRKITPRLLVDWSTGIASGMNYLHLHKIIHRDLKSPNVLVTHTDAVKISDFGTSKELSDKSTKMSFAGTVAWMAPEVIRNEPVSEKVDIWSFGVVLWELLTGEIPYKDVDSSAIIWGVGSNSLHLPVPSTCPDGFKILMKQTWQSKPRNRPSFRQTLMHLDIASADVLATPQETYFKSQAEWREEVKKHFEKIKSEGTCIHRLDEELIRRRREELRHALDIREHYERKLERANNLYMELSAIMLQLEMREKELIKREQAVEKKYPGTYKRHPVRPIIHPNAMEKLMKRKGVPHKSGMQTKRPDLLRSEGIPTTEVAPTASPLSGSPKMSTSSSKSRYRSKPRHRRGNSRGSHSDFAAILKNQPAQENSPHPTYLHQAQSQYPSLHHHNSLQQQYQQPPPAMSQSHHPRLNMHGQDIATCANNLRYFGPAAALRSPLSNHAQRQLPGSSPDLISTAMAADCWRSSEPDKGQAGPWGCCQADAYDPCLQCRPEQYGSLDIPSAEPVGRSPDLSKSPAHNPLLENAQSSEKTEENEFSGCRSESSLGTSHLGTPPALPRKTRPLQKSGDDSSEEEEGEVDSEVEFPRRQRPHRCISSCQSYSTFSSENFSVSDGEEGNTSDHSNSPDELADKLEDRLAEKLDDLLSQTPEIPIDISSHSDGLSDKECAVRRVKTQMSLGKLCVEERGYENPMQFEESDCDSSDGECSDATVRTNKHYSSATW
VRK2, sequence (Q86Y07 whole entry): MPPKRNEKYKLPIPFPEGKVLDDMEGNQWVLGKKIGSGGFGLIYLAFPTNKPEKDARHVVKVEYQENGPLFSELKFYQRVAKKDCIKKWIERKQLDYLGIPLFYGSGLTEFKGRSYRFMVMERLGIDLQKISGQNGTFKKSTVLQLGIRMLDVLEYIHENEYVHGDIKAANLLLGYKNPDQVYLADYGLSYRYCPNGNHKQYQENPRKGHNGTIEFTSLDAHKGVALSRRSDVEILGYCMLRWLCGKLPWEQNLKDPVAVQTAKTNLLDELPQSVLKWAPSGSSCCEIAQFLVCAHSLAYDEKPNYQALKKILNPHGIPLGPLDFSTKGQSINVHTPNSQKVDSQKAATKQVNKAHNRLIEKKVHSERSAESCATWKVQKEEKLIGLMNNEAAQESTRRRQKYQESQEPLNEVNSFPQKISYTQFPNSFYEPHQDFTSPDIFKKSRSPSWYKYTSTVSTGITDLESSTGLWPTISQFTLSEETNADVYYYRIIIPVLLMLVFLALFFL
CDK7/Cyclin H, sequence (P50613 whole entry): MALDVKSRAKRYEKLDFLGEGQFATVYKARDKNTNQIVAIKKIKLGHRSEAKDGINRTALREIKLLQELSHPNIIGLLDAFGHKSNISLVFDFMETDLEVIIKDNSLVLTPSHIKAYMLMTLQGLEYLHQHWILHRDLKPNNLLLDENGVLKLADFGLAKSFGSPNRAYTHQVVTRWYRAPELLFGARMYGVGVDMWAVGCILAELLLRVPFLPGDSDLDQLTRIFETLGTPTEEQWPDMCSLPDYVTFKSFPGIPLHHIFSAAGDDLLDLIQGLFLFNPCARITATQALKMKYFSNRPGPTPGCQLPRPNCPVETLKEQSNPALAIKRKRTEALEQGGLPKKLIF
CDK7/Cyclin H, sequence (P51946 whole entry partner): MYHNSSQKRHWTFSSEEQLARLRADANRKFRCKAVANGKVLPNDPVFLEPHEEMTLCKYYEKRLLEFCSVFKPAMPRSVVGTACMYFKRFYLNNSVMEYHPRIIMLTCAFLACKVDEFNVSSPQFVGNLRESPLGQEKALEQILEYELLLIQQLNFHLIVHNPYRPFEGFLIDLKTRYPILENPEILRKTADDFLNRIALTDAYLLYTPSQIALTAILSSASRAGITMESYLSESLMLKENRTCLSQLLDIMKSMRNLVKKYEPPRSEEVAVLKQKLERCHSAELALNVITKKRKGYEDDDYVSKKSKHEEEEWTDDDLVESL
CDK7/Cyclin H, sequence (P51948 whole entry partner): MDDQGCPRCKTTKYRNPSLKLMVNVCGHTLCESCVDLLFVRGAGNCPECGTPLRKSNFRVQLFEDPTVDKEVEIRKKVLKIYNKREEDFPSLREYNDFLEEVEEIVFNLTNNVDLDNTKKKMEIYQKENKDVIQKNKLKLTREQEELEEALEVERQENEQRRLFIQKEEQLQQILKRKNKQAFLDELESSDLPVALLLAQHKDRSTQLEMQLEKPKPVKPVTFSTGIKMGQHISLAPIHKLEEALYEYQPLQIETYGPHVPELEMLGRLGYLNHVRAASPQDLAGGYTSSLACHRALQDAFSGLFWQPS
RPS6KA5(Kin.Dom.1-N-terminal), sequence (O75582 1-387 limits assumed): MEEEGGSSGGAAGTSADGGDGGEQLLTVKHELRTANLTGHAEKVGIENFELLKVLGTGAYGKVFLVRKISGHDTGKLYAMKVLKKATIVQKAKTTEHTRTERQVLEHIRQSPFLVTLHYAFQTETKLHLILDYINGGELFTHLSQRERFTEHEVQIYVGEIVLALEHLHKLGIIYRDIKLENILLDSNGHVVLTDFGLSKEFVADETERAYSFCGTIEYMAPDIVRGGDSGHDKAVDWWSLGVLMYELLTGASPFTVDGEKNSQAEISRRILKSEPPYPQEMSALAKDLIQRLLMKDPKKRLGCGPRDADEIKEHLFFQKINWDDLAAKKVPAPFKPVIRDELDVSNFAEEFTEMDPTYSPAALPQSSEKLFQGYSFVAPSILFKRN
TYK2(JH2domain-pseudokinase), sequence (P29597 556-888 limits assumed): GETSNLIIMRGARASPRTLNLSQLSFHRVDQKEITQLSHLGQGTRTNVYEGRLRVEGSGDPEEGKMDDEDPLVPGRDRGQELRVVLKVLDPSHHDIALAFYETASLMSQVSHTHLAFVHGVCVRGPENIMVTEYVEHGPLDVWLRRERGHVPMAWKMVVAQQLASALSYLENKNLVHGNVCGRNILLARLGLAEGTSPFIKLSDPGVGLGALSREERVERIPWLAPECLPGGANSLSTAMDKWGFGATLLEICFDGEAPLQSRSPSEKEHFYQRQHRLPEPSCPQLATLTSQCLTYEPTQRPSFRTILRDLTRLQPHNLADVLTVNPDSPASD
GSK3α, sequence (P49840 whole entry): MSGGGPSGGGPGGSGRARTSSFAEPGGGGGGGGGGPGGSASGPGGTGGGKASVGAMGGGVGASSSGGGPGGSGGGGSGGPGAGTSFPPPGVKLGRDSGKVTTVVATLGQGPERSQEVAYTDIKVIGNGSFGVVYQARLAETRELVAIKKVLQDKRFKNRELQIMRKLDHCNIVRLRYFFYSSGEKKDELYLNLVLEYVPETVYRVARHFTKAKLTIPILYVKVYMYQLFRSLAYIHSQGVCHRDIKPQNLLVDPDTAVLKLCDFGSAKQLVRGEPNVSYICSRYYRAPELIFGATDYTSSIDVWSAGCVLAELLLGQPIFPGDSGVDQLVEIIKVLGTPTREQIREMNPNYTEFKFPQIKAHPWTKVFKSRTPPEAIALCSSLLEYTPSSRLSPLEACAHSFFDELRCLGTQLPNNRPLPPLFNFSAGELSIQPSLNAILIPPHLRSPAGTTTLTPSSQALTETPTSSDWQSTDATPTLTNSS

`COc1cc(F)ccc1-c1cc(Nc2cc(CS(C)(=N)=O)ccn2)ncc1F` (centres unmarked) [VIP152] gave an inhibition at 0.1 µM ([1]; 100 nM, read-out: inhibition of ERBB2 relative to control) of 65%, a remaining binding at 0.1 µM ([1]; ERBB2, 100 nM, read-out: Percent Control) of 35% and a remaining binding at 1 µM ([1]; ERBB2, 1000 nM, read-out: Percent Control) of 100%. For the same compound, the inhibition at 10 µM [2] was 13%, the remaining binding at 0.1 µM [3] was 83% and the remaining binding at 0.1 µM [4] was 100%. The remaining binding at 0.1 µM [5] was 100%, the remaining binding at 0.1 µM [6] was 97% and the remaining binding at 1 µM [7] was 63%. The remaining binding at 1 µM [8] was 90%, the remaining binding at 1 µM [9] was 83% and the remaining binding at 1 µM [10] was 51%. The remaining binding at 1 µM [11] was 97%, the remaining binding at 1 µM [12] was 85% and the remaining binding at 1 µM [13] was 100%. For the same compound, the IC50 [14] was over 10 µM and the “potency versus the other inhibitors tested” value [15] was “higher potency”.
